Values quoted from earlier work in publication PMC10205807, “Cross-species comparison in nonclinical pharmacokinetics of lenvatinib by a simple HPLC with ultraviolet detection” (Scientific Reports, 2023).
Like-named read-outs stand apart in the source and are kept apart here.

Experiments:
[1] = design: method as in PMID 29620050; conditions: dogs, intravenous; cited from earlier work
[2] = design: method as in PMID 29620050; conditions: male rats, intravenous; cited from earlier work
[3] = design: method as in PMID 28115222; conditions: dogs; cited from earlier work
[4] = design: method as in PMID 28115222; conditions: mice; cited from earlier work
[5] = design: method as in PMID 28115222; conditions: rats; cited from earlier work
[6] = design: method as in PMID 30514402; conditions: dogs; cited from earlier work
[7] = design: method as in PMID 30514402; conditions: monkeys; cited from earlier work
[8] = design: method as in PMID 30514402; conditions: mice; cited from earlier work

## COc1cc2c(Oc3ccc4[nH]c(C)cc4c3F)ccnc2cc1OCC1(N)CC1 [anlotinib]
[1]
  CLtot: 6.33 mL/min/kg
  Vdss: 6.8 L/kg
[2]
  CLtot: 106 mL/min/kg
  Vdss: 25.4 L/kg

## CCOc1cc2ncc(C#N)c(Nc3ccc(OCc4ccccn4)c(Cl)c3)c2cc1NC(=O)/C=C/[C@H]1CCCN1C [pyrotinib]
[3]
  CLtot: 28 mL/min/kg
  F: 20.0%
  Vdss: 8.157 L/kg
[4]
  CLtot: 37.2 mL/min/kg
  F: 20.6%
  Vdss: 5.027 L/kg
[5]
  CLtot: 3.5 mL/min/kg
  F: 43.5%
  Vdss: 1.35 L/kg

## Cc1cn(-c2cc(NC(=O)c3ccc(C)c(Nc4nccc(-c5cccnc5)n4)c3)cc(C(F)(F)F)c2)cn1 [nilotinib]
[6]
  CLtot: 3.17 mL/min/kg
  Oral bioavailability: 24%
  Vdss: 1.157 L/kg
[7]
  CLtot: 10.6 mL/min/kg
  Oral bioavailability: 16%
  Vdss: 5.737 L/kg
[8]
  CLtot: 2.18 mL/min/kg
  Oral bioavailability: 50%
  Vdss: 0.29 L/kg
